Measured values taken from patent US12624034B2, “Non-covalent modifiers of AKT1 and uses thereof” (Terremoto Biosciences, Inc., priority 2023, dated 2026).
Where two headings read alike, the source gives them in different places.

Key:
[1] = target: T1, AKT1 WT (Homo sapiens, UniProt P31749); assay: Live cell AKT1 WT target engagement by NanoBRET competitive probe displacement in HEK293 cells; assay type: binding; conditions: 2 h at 37° C., read-out: AKT1 WT IC50
T1 construct: expressed in transfected cells; host or cells: HEK293
T1 sequence (P31749 whole entry): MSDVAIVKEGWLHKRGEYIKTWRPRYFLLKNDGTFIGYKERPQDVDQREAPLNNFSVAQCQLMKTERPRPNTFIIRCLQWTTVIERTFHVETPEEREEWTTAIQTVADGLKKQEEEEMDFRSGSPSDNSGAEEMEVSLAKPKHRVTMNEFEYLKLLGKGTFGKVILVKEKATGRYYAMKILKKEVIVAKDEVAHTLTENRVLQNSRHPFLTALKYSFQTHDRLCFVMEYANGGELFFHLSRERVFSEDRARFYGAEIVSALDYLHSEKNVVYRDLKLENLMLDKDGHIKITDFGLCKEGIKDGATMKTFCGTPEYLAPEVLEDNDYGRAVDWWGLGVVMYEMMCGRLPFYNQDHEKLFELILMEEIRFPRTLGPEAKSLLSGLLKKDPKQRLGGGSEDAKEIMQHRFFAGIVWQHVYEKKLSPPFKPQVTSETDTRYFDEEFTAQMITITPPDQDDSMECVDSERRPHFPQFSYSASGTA

[2] = target: T2, AKT2 (Homo sapiens, UniProt P31751); assay: Live cell AKT2 target engagement by NanoBRET competitive probe displacement in HEK293 cells; assay type: binding; conditions: 2 h at 37° C., read-out: AKT2 IC50
T2 construct: expressed in transfected cells; host or cells: HEK293
T2 sequence (P31751 whole entry): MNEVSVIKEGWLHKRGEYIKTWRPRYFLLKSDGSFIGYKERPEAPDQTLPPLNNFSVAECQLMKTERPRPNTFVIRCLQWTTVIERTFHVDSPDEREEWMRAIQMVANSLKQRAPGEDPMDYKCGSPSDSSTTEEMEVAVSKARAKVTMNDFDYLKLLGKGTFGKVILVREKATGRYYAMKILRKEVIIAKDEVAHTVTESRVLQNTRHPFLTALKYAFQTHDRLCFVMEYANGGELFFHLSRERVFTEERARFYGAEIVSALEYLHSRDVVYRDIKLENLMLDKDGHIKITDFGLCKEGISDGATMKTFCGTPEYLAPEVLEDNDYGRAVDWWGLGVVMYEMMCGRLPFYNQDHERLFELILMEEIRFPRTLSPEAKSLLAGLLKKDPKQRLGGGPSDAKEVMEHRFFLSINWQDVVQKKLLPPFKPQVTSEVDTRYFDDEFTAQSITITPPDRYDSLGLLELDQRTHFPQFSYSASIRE

[3] = NanoBRET live cell target engagement, HEK293 cells
[4] = NanoBRET competitive probe displacement, live HEK293 cells

IC50 [1, 3]	IC50 [2, 3]	IC50 [1, 4]	IC50 [2, 4]	Compound
121 nM	2900 nM			Cc1cc2c(=O)n([C@H]3CCc4cc(-n5c(-c6cccnc6N)nc6ccc(-n7cccn7)nc65)ccc43)cnc2cn1 [Compound 81, (S)-3-(5-(2-(2-aminopyridin-3-yl)-5-(1H-pyrazol-1-yl)-3H-imidazo[4,5-b]pyridin-3-yl)-2,3-dihydro-1H-inden-1-yl)-6-methylpyrido[3,4-d]pyrimidin-4(3H)-one]
56.2 nM	660 nM			Nc1ncccc1-c1nc2ccc(-n3cccn3)nc2n1-c1ccc2c(c1)CC[C@@H]2NC(=O)c1cnc(O)c(F)c1 [Compound 296]
		198 nM	4470 nM	Nc1ncccc1-c1nc2ccc(-n3cccn3)nc2n1-c1ccc2c(c1)CC[C@@H]2NC1CCC2(CC1)CN(c1ccccn1)C2 [Compound 450]
29.9 nM	687 nM			Cc1cc(C(=O)N[C@H]2CCc3cc(-n4c(-c5cccnc5N)nc5ccc(-n6cccn6)nc54)ccc32)nn1C(F)F [Compound 166]
3.83 nM	18.9 nM			Nc1ncccc1-c1nc2ccc(-n3cccn3)nc2n1-c1ccc2c(c1)CC[C@@H]2NC(=O)c1ccc2ccnn2c1 [Compound 290]
		117 nM	2330 nM	CC(C)C(=O)N1CCC(N[C@@H]2c3ccc(-n4c(-c5cccnc5N)nc5ccc(-n6cccn6)nc54)cc3CC2F)CC1 (stereo partly shown) [Compound 542]
20.9 nM	456 nM			Cc1csc(-c2ccc3nc(-c4cccnc4N)n(-c4ccc5c(c4)CC[C@@H]5NC(=O)c4nccnc4C)c3n2)n1 [Compound 302]
168 nM	4550 nM			Nc1ncccc1-c1nc2ccc(-n3nccn3)nc2n1-c1ccc2c(c1)CC[C@@H]2NCc1ccc(C(F)F)nc1 [Compound 234]
		116 nM	1010 nM	C#Cc1cc(-n2nccn2)nc2c1nc(-c1cccnc1N)n2-c1ccc2c(c1)CC[C@@H]2NC(=O)c1ccc(C)nc1 [Compound 587]
13.6 nM	68.2 nM			Cn1c(=O)[nH]c2ccc(C(=O)N[C@H]3CCc4cc(-n5c(-c6cccnc6N)nc6ccc(-n7cccn7)nc65)ccc43)cc21 [Compound 230]
		47.5 nM	679 nM	CN1CCC(n2ccc(-c3ccc4nc(-c5cccnc5N)n(-c5ccc6c(c5)CC[C@@H]6NC5CCN(C(=O)C6CC6)CC5)c4n3)n2)CC1 [Compound 570]
68.2 nM	6260 nM			Nc1ncccc1-c1nc2ccc(-n3cccn3)nc2n1-c1ccc2c(c1)CC[C@@H]2n1cc(C2COC2)nn1 [Compound 220]
3.32 nM	8.47 nM			Cc1ccc(C(=O)N[C@H]2CCc3cc(-n4c(-c5cccnc5N)nc5ccc(-c6nc(C)cs6)nc54)ccc32)cn1 [Compound 300]
111 nM	> 10000 nM			Cc1ncccc1C(=O)N[C@H]1CCc2cc(-n3c(-c4cccnc4N)nc4ccc(C5CC5)nc43)ccc21 [Compound 129]
285 nM	> 10000 nM			Cc1nccnc1C(=O)N[C@H]1CCc2cc(-n3c(-c4cccnc4N)nc4ccc(-c5cnn(C)n5)nc43)ccc21 [Compound 271]
12.1 nM	158 nM			Nc1ncccc1-c1nc2ccc(-n3cccn3)nc2n1-c1ccc2c(c1)CC[C@@H]2NC(=O)c1ccc2nccn2n1 [Compound 236]
16.9 nM	201 nM			Cc1csc(-c2ccc3nc(-c4cccnc4N)n(-c4ccc5c(c4)CC[C@@H]5n4ccnn4)c3n2)n1 [Compound 316]
7.95 nM	28.1 nM			Cc1cn2cc(C(=O)N[C@H]3CCc4cc(-n5c(-c6cccnc6N)nc6ccc(-n7cccn7)nc65)ccc43)ccc2n1 [Compound 72]
508 nM	> 10000 nM			Cc1ccc2nc(-c3cccnc3N)n(-c3ccc4c(c3)CC[C@@H]4NC(=O)c3ccc(C(F)F)nc3)c2n1 [Compound 146]
9.1 nM	57.7 nM			Nc1ncccc1-c1nc2ccc(-n3cccn3)nc2n1-c1ccc2c(c1)CC[C@@H]2NC(=O)c1cnc2ccnn2c1 [Compound 238]
		13.1 nM	296 nM	COCCOc1ccn(-c2ccc3nc(-c4cccnc4N)n(-c4ccc5c(c4)CC[C@@H]5NC4CCN(c5ccn(C)n5)CC4)c3n2)n1 [Compound 551]
38.7 nM	586 nM			Cc1ccc(C(=O)N[C@H]2CCc3cc(-n4c(-c5cccnc5N)nc5ccc(-c6ncco6)nc54)ccc32)cn1 [Compound 223]
		105 nM	> 10000 nM	Nc1ncccc1-c1nc2ccc(C#CC3CC3)nc2n1-c1ccc2c(c1)CC(F)[C@@H]2NC1CCN(C(=O)C2CC2)CC1 (stereo partly shown) [Compound 521]
		74.7 nM	1960 nM	Nc1ncccc1-c1nc2ccc(-n3cccn3)nc2n1-c1ccc2c(c1)CC[C@@H]2NC1CC2(CCCN(c3ccccn3)C2)C1 (stereo partly shown) [Compound 468]

IC50 [1, 3]	IC50 [2, 3]	IC50 [1, 4]	IC50 [2, 4]	Compound
		23.2 nM	940 nM	Nc1ncccc1-c1nc2ccc(-n3cccn3)nc2n1-c1ccc2c(c1)CC[C@@H]2NC1CCN(C(=O)C2CC2)CC1F (stereo partly shown) [Compound 443]
		2.96 nM	70 nM	Nc1ncccc1-c1nc2ccc(-n3cccn3)nc2n1-c1ccc2c(c1)CC[C@@H]2NC(=O)c1cc(C2CC2)c(O)c(C(F)(F)F)c1 [Compound 415]
168 nM	2340 nM			CN(C)Cc1cc(C(=O)N[C@H]2CCc3cc(-n4c(-c5cccnc5N)nc5ccc(-n6cccn6)nc54)ccc32)ccn1 [Compound 205]
65.8 nM	2140 nM			Cc1ccc(S(=O)(=O)N[C@H]2CCc3cc(-n4c(-c5cccnc5N)nc5ccc(-n6cccn6)nc54)ccc32)cn1 [Compound 82]
		38.9 nM	507 nM	Nc1ncccc1-c1nc2ccc(-n3ccc(OC(F)F)n3)nc2n1-c1ccc2c(c1)CC[C@@H]2NC(=O)c1cnc(C(F)F)s1 [Compound 534]
		418 nM	7070 nM	Nc1ncccc1-c1nc2ccc(-n3cccn3)nc2n1-c1ccc2c(c1)CC[C@@H]2NC1CCc2nc(C(F)F)sc21 (stereo partly shown) [Compound 600]
24.7 nM	987 nM			Cc1ccc(C(=O)N[C@H]2CCc3cc(-n4c(-c5cccnc5N)nc5ccc(-n6cncn6)nc54)ccc32)cn1 [Compound 346]
16.6 nM	240 nM			Nc1ncccc1-c1nc2ccc(-n3cccn3)nc2n1-c1ccc2c(c1)CC[C@@H]2NC(=O)c1cc(F)c(F)c(F)c1 [Compound 343]
		28.2 nM	1070 nM	Nc1ncccc1-c1nc2ccc(-n3cccn3)nc2n1-c1ccc2c(c1)CC[C@@H]2NC1CCc2ccncc21 (single isomer, unassigned) [Example 496, (R*)—N—((S)-5-(2-(2-aminopyridin-3-yl)-5-(1H-pyrazol-1-yl)-3H-imidazo[4,5-b]pyridin-3-yl)-2,3-dihydro-1H-inden-1-yl)-6,7-dihydro-5H-cyclopenta[c]pyridin-7-amine]
		2.77 nM	15.3 nM	Nc1ncccc1-c1nc2ccc(-n3ccc(OC(F)F)n3)nc2n1-c1ccc2c(c1)CC[C@@H]2NC(=O)c1ccc(C2CC2)nc1 [Compound 537]
		33.7 nM	2820 nM	C#Cc1ccc2nc(-c3cccnc3N)n(-c3ccc4c(c3)CC[C@@H]4NC(=O)c3ccc(C(F)F)nc3)c2n1 [Compound 404]
		78.5 nM	1490 nM	Nc1ncccc1-c1nc2ccc(-n3cccn3)nc2n1-c1ccc2c(c1)CC[C@@H]2NC1CC2(CCN(c3ccccn3)C2)C1 (stereo partly drawn) [Compound 447, N-[(1S)-5-[2-(2-aminopyridin-3-yl)-5-(pyrazol-1-yl)imidazo[4,5-b]pyridin-3-yl]-2,3-dihydro-1H-inden-1-yl]-6-(pyridin-2-yl)-6-azaspiro[3.4]octan-2-amine]
9.12 nM	37.8 nM			COc1ncc(C(=O)N[C@H]2CCc3cc(-n4c(-c5cccnc5N)nc5ccc(-n6cccn6)nc54)ccc32)cc1F [Compound 162]
		50.6 nM	1280 nM	Nc1ncccc1-c1nc2ccc(-n3cccn3)nc2n1-c1ccc2c(c1)CC[C@@H]2NC1Cc2cccnc2C1 (stereo partly shown) [Compound 531]
170 nM	> 10000 nM			Cc1ccc2nc(-c3cccnc3N)n(-c3ccc4c(c3)CC[C@@H]4NC(=O)c3cccnc3C)c2n1 [Compound 145]
		170 nM	4360 nM	Nc1ncccc1-c1nc2ccc(-n3cccn3)nc2n1-c1ccc2c(c1)CC[C@@H]2NC1CCN(C(=O)[C@@H]2C[C@@H]2F)CC1 [Compound 477]
		2.22 nM	176 nM	N[C@@H]1c2ccc(-n3c(-c4ccccc4F)nc4ccc(-n5ccc(N6CCOCC6)n5)nc43)cc2CC1F (stereo partly shown) [Compound 571]
118 nM	> 10000 nM			Nc1ncccc1-c1nc2ccc(-n3nccn3)nc2n1-c1ccc2c(c1)CC[C@@H]2NC(=O)c1cccnc1C(F)F [Compound 107]
		8.72 nM	458 nM	Nc1ncccc1-c1nc2ccc(-n3ccc(Oc4cccnc4)n3)nc2n1-c1ccc2c(c1)CC[C@@H]2NC1CCN(C(=O)C2CC2)CC1 [Compound 568]
		524 nM	> 10000 nM	Nc1ncccc1-c1nc2ccc(-n3cccn3)nc2n1-c1ccc2c(c1)CC(F)C2NC1CCN(C(=O)C2CC2)CC1 (stereo not shown) [Compound 522]
65.8 nM	2120 nM			Cc1ncccc1OCC1CCc2cc(-n3c(-c4cccnc4N)nc4ccc(-n5cccn5)nc43)ccc21 (single isomer, unassigned) [Compound 253, (*)-3-(3-(1-(((2-methylpyridin-3-yl)oxy)methyl)-2,3-dihydro-1H-inden-5-yl)-5-(1H-pyrazol-1-yl)-3H-imidazo[4,5-b]pyridin-2-yl)pyridin-2-amine]
5.27 nM	29.1 nM			CC(=O)Nc1c(F)cc(C(=O)N[C@H]2CCc3cc(-n4c(-c5cccnc5N)nc5ccc(-n6cccn6)nc54)ccc32)cc1F [Compound 294]
22.1 nM	351 nM			Nc1ncccc1-c1nc2ccc(-n3cccn3)nc2n1-c1ccc2c(c1)CC[C@@H]2NC(=O)c1ccc(F)cc1 [Compound 310]
